Test results from ChEMBL document CHEMBL3991601, “The target landscape of clinical kinase drugs” (Science, 2017).
Calls of active or inactive are those of the source. Rule as the data show it, for most assays here: actives have a measured Kd and inactives only a lower limit.

Columns and labels:
[1] = target: Tyrosine-protein kinase CSK (Homo sapiens, UniProt P41240)
Activin receptor type-1 = target: T1, Activin receptor type-1 (Homo sapiens, UniProt Q04771)
T1 sequence (Q04771 whole entry): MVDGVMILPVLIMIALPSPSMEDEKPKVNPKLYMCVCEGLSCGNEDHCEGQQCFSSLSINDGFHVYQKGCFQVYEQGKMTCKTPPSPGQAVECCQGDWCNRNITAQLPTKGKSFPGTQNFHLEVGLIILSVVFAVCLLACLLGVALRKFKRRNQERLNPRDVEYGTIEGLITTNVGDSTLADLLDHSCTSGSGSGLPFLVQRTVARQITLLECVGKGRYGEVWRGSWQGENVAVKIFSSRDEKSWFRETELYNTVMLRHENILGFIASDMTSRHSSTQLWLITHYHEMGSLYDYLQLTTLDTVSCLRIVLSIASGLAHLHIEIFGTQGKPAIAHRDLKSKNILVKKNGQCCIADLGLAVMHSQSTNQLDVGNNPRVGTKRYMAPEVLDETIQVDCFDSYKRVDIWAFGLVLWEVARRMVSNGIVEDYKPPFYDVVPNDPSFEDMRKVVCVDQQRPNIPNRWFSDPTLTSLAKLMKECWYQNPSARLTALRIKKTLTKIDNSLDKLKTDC

[2] = target: Tyrosine-protein kinase Lyn (Homo sapiens, UniProt P07948)
[3] = target: T2, Serine/threonine-protein kinase 3 (Homo sapiens, UniProt Q13188)
T2 sequence (Q13188 whole entry): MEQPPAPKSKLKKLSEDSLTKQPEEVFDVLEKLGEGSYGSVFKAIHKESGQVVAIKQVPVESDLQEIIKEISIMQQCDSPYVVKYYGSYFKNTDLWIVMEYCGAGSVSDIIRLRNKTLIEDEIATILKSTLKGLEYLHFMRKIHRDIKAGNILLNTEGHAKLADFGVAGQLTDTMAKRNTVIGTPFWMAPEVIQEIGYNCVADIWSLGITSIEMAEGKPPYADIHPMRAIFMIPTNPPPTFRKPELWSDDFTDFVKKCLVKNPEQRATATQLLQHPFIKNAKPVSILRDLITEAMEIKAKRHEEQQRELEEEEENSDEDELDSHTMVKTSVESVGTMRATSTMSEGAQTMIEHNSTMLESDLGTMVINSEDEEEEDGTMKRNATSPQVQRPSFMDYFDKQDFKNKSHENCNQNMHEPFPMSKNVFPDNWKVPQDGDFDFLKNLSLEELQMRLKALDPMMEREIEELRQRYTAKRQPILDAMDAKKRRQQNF

[4] = target: Cyclin-dependent kinase 3 (Homo sapiens, UniProt Q00526)
Deoxycytidine kinase = Deoxycytidine kinase (Homo sapiens, UniProt P27707)
LIM domain kinase 2 = LIM domain kinase 2 (Homo sapiens, UniProt P53671)
[5] = target: T3, Membrane-associated tyrosine- and threonine-specific cdc2-inhibitory kinase (Homo sapiens, UniProt Q99640)
T3 sequence (Q99640 whole entry): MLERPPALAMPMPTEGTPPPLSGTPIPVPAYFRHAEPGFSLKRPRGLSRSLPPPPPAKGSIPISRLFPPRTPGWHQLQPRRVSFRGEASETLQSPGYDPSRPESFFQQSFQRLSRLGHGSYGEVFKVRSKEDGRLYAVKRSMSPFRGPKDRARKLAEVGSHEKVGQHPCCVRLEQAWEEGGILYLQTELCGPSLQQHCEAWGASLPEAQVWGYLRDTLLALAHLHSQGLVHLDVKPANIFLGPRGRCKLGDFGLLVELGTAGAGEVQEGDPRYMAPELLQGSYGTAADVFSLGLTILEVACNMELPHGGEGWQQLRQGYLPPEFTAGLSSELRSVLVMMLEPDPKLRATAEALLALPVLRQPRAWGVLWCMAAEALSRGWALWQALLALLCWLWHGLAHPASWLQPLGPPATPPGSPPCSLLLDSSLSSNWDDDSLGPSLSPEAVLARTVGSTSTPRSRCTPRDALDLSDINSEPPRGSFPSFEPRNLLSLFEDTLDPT

[6] = target: Mitogen-activated protein kinase kinase kinase 4 (Homo sapiens, UniProt Q9Y6R4)
[7] = target: T4, NUAK family SNF1-like kinase 2 (Homo sapiens, UniProt Q9H093)
T4 sequence (Q9H093 whole entry): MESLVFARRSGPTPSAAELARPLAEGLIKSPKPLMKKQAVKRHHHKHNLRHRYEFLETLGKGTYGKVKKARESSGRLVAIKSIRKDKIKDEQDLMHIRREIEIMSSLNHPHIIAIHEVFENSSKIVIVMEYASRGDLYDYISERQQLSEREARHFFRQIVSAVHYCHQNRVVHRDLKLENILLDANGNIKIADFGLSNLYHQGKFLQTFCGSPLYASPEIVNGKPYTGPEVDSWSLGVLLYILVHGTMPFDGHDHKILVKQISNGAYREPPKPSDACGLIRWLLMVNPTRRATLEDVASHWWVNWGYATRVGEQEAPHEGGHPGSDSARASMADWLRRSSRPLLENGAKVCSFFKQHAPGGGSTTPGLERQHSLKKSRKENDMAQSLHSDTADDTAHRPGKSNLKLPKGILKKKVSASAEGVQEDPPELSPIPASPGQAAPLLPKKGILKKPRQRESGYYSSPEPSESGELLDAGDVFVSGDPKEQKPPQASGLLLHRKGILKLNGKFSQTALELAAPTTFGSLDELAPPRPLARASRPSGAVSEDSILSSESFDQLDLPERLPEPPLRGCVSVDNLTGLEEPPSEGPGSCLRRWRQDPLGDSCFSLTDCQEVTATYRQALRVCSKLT
Also: in the data inactive means no Kd found up to 30 µM.

Sequence of Deoxycytidine kinase (P27707 whole entry, the tested form may be a part): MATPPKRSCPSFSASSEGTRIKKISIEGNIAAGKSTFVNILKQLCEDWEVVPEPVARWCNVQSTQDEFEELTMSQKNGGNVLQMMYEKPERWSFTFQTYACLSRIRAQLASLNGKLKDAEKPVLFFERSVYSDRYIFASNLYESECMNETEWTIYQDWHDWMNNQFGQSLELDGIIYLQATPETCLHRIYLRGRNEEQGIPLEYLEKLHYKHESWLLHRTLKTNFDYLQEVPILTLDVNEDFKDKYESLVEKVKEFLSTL
Sequence of Mitogen-activated protein kinase kinase kinase 4 (Q9Y6R4 whole entry): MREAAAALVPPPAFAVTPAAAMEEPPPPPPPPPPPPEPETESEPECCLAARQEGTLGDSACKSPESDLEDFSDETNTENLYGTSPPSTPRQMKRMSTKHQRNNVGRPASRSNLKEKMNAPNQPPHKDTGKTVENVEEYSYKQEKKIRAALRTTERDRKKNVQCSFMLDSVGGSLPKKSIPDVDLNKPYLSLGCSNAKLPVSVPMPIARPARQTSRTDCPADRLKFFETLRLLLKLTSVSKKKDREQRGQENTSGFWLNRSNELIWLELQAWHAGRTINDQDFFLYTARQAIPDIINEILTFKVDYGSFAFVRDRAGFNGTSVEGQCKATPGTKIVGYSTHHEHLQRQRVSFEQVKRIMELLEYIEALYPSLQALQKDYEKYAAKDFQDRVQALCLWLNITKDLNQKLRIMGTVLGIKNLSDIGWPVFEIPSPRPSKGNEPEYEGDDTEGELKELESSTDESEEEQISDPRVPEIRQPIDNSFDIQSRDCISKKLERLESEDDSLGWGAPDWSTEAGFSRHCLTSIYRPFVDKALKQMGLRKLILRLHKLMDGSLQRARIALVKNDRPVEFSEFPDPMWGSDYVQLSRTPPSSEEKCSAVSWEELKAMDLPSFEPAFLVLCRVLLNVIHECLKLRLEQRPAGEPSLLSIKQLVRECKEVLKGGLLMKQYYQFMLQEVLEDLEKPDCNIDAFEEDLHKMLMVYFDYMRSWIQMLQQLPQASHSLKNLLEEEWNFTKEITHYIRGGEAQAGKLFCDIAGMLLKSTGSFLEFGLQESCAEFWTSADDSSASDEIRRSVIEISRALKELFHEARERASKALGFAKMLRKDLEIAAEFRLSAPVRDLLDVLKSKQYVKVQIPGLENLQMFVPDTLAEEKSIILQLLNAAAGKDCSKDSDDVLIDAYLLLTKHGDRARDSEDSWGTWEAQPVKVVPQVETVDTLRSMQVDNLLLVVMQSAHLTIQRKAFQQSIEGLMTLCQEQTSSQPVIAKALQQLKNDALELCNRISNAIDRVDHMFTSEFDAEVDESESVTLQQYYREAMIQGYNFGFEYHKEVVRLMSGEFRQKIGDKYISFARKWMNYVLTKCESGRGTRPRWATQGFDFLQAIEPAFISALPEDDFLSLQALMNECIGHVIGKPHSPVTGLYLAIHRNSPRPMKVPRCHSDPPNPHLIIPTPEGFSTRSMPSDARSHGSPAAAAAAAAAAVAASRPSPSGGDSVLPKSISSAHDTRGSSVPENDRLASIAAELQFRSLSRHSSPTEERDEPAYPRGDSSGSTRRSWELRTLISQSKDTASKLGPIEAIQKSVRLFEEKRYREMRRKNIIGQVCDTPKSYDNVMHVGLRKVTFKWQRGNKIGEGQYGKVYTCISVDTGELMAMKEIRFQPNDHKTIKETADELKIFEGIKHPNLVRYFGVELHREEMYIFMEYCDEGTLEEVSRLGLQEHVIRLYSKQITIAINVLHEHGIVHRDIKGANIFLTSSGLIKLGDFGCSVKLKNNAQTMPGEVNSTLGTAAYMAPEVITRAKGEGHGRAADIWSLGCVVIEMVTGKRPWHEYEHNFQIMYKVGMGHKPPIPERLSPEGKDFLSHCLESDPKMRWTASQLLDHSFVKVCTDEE
Sequence of Cyclin-dependent kinase 3 (Q00526 whole entry): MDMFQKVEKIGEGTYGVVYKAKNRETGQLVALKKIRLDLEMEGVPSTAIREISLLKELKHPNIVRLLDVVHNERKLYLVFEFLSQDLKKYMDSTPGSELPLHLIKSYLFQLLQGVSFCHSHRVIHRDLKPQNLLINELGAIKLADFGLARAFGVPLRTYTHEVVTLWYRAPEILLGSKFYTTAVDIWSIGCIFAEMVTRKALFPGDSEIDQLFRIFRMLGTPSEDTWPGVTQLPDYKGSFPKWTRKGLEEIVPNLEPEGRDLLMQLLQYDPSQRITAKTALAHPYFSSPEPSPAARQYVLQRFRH
Sequence of LIM domain kinase 2 (P53671 whole entry, the tested form may be a part): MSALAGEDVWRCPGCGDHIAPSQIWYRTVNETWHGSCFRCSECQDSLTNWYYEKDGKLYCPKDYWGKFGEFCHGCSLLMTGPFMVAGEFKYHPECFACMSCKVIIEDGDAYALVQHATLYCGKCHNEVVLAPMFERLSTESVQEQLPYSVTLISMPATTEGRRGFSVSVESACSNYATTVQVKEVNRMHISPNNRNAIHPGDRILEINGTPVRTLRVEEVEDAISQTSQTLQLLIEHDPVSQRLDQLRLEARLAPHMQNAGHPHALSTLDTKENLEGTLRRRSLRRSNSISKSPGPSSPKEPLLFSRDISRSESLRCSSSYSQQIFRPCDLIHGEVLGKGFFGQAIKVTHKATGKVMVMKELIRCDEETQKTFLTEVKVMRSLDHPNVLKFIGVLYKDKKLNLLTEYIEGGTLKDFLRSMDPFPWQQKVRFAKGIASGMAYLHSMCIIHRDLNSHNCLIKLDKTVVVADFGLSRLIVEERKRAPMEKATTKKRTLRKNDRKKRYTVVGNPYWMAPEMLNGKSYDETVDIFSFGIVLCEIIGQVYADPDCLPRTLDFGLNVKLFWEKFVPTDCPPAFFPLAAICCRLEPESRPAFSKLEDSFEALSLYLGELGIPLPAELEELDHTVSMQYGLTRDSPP
Sequence of Tyrosine-protein kinase Lyn (P07948 whole entry): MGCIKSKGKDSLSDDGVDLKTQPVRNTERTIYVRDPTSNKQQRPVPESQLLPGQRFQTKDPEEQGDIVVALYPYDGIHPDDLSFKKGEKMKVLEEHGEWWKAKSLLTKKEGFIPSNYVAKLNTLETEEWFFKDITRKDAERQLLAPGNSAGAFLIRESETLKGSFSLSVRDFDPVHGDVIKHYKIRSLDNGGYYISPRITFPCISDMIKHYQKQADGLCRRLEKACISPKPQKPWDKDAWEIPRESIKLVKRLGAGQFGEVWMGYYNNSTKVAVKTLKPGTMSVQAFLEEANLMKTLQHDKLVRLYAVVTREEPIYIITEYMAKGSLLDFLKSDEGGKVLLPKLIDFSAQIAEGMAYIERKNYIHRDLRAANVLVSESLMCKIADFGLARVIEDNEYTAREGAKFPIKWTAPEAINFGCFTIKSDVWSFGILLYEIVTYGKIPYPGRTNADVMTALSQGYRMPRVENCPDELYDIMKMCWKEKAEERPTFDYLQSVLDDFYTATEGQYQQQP

| Kd [1] | Kd (Activin receptor type-1) | Kd [2] | Kd [3] | Kd [4] | Kd (Deoxycytidine kinase) | Kd (LIM domain kinase 2) | Kd [5] | Kd [6] | Kd [7] | Structure (SMILES) |
| --- | --- | --- | --- | --- | --- | --- | --- | --- | --- | --- |
| > 30 µM (inactive) | > 30 µM (inactive) | > 30 µM (inactive) | > 30 µM (inactive) | > 30 µM (inactive) | > 30 µM (inactive) | > 30 µM (inactive) | > 30 µM (inactive) | > 30 µM (inactive) | > 30 µM (inactive) | COc1cc2ncnc(Nc3ccc(F)c(Cl)c3)c2cc1NC(=O)/C=C/CN1CCCCC1 [DACOMITINIB ANHYDROUS] |
| > 30 µM (inactive) | > 30 µM (inactive) | > 30 µM (inactive) | > 30 µM (inactive) | > 30 µM (inactive) | > 30 µM (inactive) | > 30 µM (inactive) | > 30 µM (inactive) | > 30 µM (inactive) | > 30 µM (inactive) | C#Cc1cccc(Nc2ncnc3cc4c(cc23)OCCOCCOCCO4)c1 [ICOTINIB] |
| > 30 µM (inactive) | > 30 µM (inactive) | > 30 µM (inactive) | > 30 µM (inactive) | > 30 µM (inactive) | > 30 µM (inactive) | > 30 µM (inactive) | > 30 µM (inactive) | > 30 µM (inactive) | > 30 µM (inactive) | CC(C)(O)CC(=O)NCCn1ccc2ncnc(Nc3ccc(Oc4cccc(C(F)(F)F)c4)c(Cl)c3)c21 [TAK-285] |
| > 30 µM (inactive) | > 30 µM (inactive) | > 30 µM (inactive) | > 30 µM (inactive) | > 30 µM (inactive) | > 30 µM (inactive) | > 30 µM (inactive) | > 30 µM (inactive) | > 30 µM (inactive) | > 30 µM (inactive) | CNC(=O)c1cccc(-c2ccc3c(N4CCOC[C@@H]4C)nc(N4CCOC[C@@H]4C)nc3n2)c1 [VISTUSERTIB] |
| > 30 µM (inactive) | > 30 µM (inactive) | > 30 µM (inactive) | > 30 µM (inactive) | > 30 µM (inactive) | > 30 µM (inactive) | > 30 µM (inactive) | > 30 µM (inactive) | > 30 µM (inactive) | > 30 µM (inactive) | COc1cc2ncnc3c2cc1OCCCCCN(C)Cc1ccc(Br)cc1N3 [JNJ-26483327] |
| > 30 µM (inactive) | > 30 µM (inactive) | 1.33 µM (active) | > 30 µM (inactive) | > 30 µM (inactive) | > 30 µM (inactive) | > 30 µM (inactive) | > 30 µM (inactive) | > 30 µM (inactive) | > 30 µM (inactive) | COc1cc2nccc(Oc3ccc(NC(=O)C4(C(=O)Nc5ccc(F)cc5)CC4)cc3)c2cc1OC [CABOZANTINIB] |
| > 30 µM (inactive) | > 30 µM (inactive) | > 30 µM (inactive) | > 30 µM (inactive) | > 30 µM (inactive) | > 30 µM (inactive) | > 30 µM (inactive) | > 30 µM (inactive) | > 30 µM (inactive) | > 30 µM (inactive) | Cn1c(=O)c(F)c(Nc2ccc(I)cc2F)c2c(=O)n(C[C@@H](O)CO)cnc21 [TAK-733] |
| 1.72 µM (active) | > 30 µM (inactive) | 0.887 µM (active) | > 30 µM (inactive) | > 30 µM (inactive) | > 30 µM (inactive) | > 30 µM (inactive) | 1.85 µM (active) | > 30 µM (inactive) | > 30 µM (inactive) | COc1cccc(Nc2ncnn3ccc(CN4CC[C@@H](N)[C@H](O)C4)c23)c1 [BMS-690514] |
| > 30 µM (inactive) | > 30 µM (inactive) | > 30 µM (inactive) | > 30 µM (inactive) | > 30 µM (inactive) | > 30 µM (inactive) | > 30 µM (inactive) | > 30 µM (inactive) | > 30 µM (inactive) | > 30 µM (inactive) | COc1cc2ncnc(Nc3ccc(O)cc3)c2cc1OC [WHI-P131] |
| > 30 µM (inactive) | > 30 µM (inactive) | > 30 µM (inactive) | > 30 µM (inactive) | > 30 µM (inactive) | > 30 µM (inactive) | 1.84 µM (active) | > 30 µM (inactive) | > 30 µM (inactive) | > 30 µM (inactive) | O[C@H]1CC[C@H](Nc2ncc3nc(Nc4c(F)cc(F)cc4F)n([C@H]4CCOC4)c3n2)CC1 [TANZISERTIB] |
| > 30 µM (inactive) | > 30 µM (inactive) | > 30 µM (inactive) | > 30 µM (inactive) | > 30 µM (inactive) | > 30 µM (inactive) | > 30 µM (inactive) | > 30 µM (inactive) | > 30 µM (inactive) | > 30 µM (inactive) | CCOc1ccn(-c2ccc(F)cc2)c(=O)c1C(=O)Nc1ccc(Oc2ccnc(N)c2Cl)c(F)c1 [BMS-777607] |

| Structure (SMILES) | Kd [1] | Kd (Activin receptor type-1) | Kd [2] | Kd [3] | Kd [4] | Kd (Deoxycytidine kinase) | Kd (LIM domain kinase 2) | Kd [5] | Kd [6] | Kd [7] |
| --- | --- | --- | --- | --- | --- | --- | --- | --- | --- | --- |
| Cc1c(Cn2c(C)nc3c(C(=O)O)cc(N4CCOCC4)cc32)cccc1C(F)(F)F [GSK-2636771] | > 30 µM (inactive) | > 30 µM (inactive) | > 30 µM (inactive) | > 30 µM (inactive) | > 30 µM (inactive) | > 30 µM (inactive) | > 30 µM (inactive) | > 30 µM (inactive) | > 30 µM (inactive) | > 30 µM (inactive) |
| NC[C@@](O)(c1ccc(Cl)cc1)c1ccc(-c2cn[nH]c2)cc1 [AT-13148] | > 30 µM (inactive) | > 30 µM (inactive) | > 30 µM (inactive) | > 30 µM (inactive) | > 30 µM (inactive) | > 30 µM (inactive) | > 30 µM (inactive) | > 30 µM (inactive) | > 30 µM (inactive) | > 30 µM (inactive) |
| C=CCN(/C=C1/C(=O)O[C@H](COC)[C@@]2(C)C1=C(O)C(=O)C1=C2[C@H](OC(C)=O)C[C@]2(C)C(=O)CC[C@@H]12)CC=C [SONOLISIB] | > 30 µM (inactive) | > 30 µM (inactive) | > 30 µM (inactive) | > 30 µM (inactive) | > 30 µM (inactive) | > 30 µM (inactive) | > 30 µM (inactive) | > 30 µM (inactive) | > 30 µM (inactive) | > 30 µM (inactive) |
| CCc1nc(C(N)=O)c(Nc2ccc(N3CCC(N4CCN(C)CC4)CC3)c(OC)c2)nc1NC1CCOCC1 [GILTERITINIB] | > 30 µM (inactive) | 0.039 µM (active) | > 30 µM (inactive) | > 30 µM (inactive) | > 30 µM (inactive) | > 30 µM (inactive) | > 30 µM (inactive) | > 30 µM (inactive) | > 30 µM (inactive) | > 30 µM (inactive) |
